Assay results as given in patent EP0592876A1, “Antimycotic dermatological and cosmetic compositions” (Beiersdorf Aktiengesellschaft, priority 1992, dated 1994).

System: Pityrosporum ovale
Experiment: agar diffusion inhibition-zone test (Hemmhof-Test)
Type: cell-based
Procedure: TY-Medium 10 g Trypton + 5 g Hefeextrakt + 10 g NaCl, aufgelöst in 1000 ml H₂O, gepuffert auf pH 7,4 , autoklaviert. Testverbindung 1: Polyoxyethylen-20-stearylether Testverbindung 2: Polyoxyethylen-20-isostearylalkohol Testverbindung 3: Polyoxyethylen-21-stearylalkohl Testverbindung 4: Polyoxyethylen-5-cetyl/stearylether Testverbindung 5: Polyoxyethylen-25-Fettalkohol Testverbindung 6: Polyoxyethylen-6-cetyl/stearylether Testverbindung 7: Polyoxyethylen-C₁₂-C₁₅-Alkylether Pityrosporum ovale, isoliert von drei Patienten mit Pityrosporum-Follikulitis, Pityriasis versicolor oder seborrhoischem Ekzem wurde in einer Mischung aus 50 % TY-Medium, 30 % Olivenöl und 20 % Tween 80 suspendiert. Die drei verschiedenen Hefestämme wurden in drei parallelen Ansätzen auf einer Selektivagarplatte für pathogene Pilze (Merck AG, Darmstadt) gleichmäßig ausgespatelt. Mit Hilfe steriler Korkbohrer wurden in jede Platte mehrere kreisrunde Vertiefungen gestanzt, In die Vertiefungen mit einem Durchmesser von 5 mm wurden jeweils 25 µl der Testlösungen gegeben. Die Testlösungen stellten 1%-ige und 10%-ige Lösungen der Testsubstanzen in Ethanol dar.
Nach dreistündiger Inkubation bei 37° C wurde das verdunstete Lösungsmittel durch je 25 µl Jojobaöl ersetzt und die Platten anschließend unter Beibehaltung der Wachstumsbedingungen drei Tage inkubiert. Während dieser Zeit diffundierten die Testsubstanzen in den die Vertiefungen umgebenden Nährboden.
Antimycotisch wirksame Testverbindungen zeigten nach dreitägiger Inkubation einen mehr oder weniger deutlichen konzentrischen Hemmhof um die Vertiefungen. Die Größe dieser Hemmhöfe, wiedergegeben in Tabelle 1, ist bei vergleichbarer Substanzkonzentration ein Maß für die antimycotische Wirksamkeit der Testverbindungen. Tabelle 1
Testverbindung 8 : Polyoxyethylen-[…]-Dodecylether Testverbindung 9 : Polyoxyethylen-20-Stearylether Testverbindung 10: Polyoxyethylen-20-isostearylalkohol Testverbindung 11: Polyoxyethylen-21-stearylalkohol Testverbindung 12: Polyoxyethylen-5-Cetyl/stearylether Testverbindung 13: Polyoxyethylen-25-Fettalkohol Testverbindung 14: Polyoxyethylen-6-Cetyl/Stearylether + Stearylalkohol Testverbindung 15: Polyoxyethylen-C₁₂-C₁₅-Alkylether Von den Testverbindungen 8 - 15 wurden ethanolische Lösungen der Konzentrationen 0,5 %, 1,0 %, 5,0 % und 10,0 % hergestellt und in den Hemmhof-Test eingeführt. Die Versuchsdurchführung entspricht in ihrem Ablaufe dem zu Versuch 1 geschilderten. Die Größe der betreffenden Hemmhöfe ist in Tabelle 2 wiedergegeben. Tabelle 2

[1] = Versuch 2, Konz. 0,5 % ethanolic solution, procedure as Versuch 1
[2] = Versuch 2, Konz. 1,0 % ethanolic solution, procedure as Versuch 1
[3] = Versuch 2, Konz. 5,0 % ethanolic solution, procedure as Versuch 1
[4] = Versuch 2, Konz. 10,0 % ethanolic solution, procedure as Versuch 1
[5] = Versuch 1, 1%-ige Lösung in Ethanol, 25 µl per 5 mm well, three days incubation at 37° C, three strains isolated from patients
[6] = Versuch 1, 10%-ige Lösung in Ethanol, 25 µl per 5 mm well, three days incubation at 37° C, three strains isolated from patients

Substance	mittlerer Hemmhof-Durchmesser [1]	mittlerer Hemmhof-Durchmesser [2]	mittlerer Hemmhof-Durchmesser [3]	mittlerer Hemmhof-Durchmesser [4]	mittlerer Hemmhof-Durchmesser [5]	mittlerer Hemmhof-Durchmesser [6]
Polyoxyethylen-5-Cetyl/stearylether [Testlösung 12]	11,0 mm	14,0 mm	16,5 mm	16,5 mm	–	–
Polyoxyethylen-5-cetyl/stearylether [Testlösung 4]	–	–	–	–	8,5 mm	9,5 mm
Polyoxyethylen-6-cetyl/stearylether [Testlösung 6]	–	–	–	–	9,5 mm	14,0 mm
Polyoxyethylen-20-Stearylether [Testlösung 9]	10,7 mm	14,0 mm	18,7 mm	20,7 mm	–	–
Polyoxyethylen-20-isostearylalkohol [Testlösung 2]	–	–	–	–	11,0 mm	12,0 mm
Polyoxyethylen-20-isostearylalkohol [Testlösung 10]	9,0 mm	9,0 mm	15,0 mm	17,3 mm	–	–
Polyoxyethylen-20-stearylether [Testlösung 1]	–	–	–	–	10,0 mm	15,5 mm
Polyoxyethylen-21-stearylalkohl [Testlösung 3]	–	–	–	–	7,0 mm	11,0 mm
Polyoxyethylen-21-stearylalkohol [Testlösung 11]	10,0 mm	11,7 mm	12,0 mm	12,7 mm	–	–
Polyoxyethylen-25-Fettalkohol [Testlösung 5]	–	–	–	–	7,0 mm	13,0 mm
Polyoxyethylen-25-Fettalkohol [Testlösung 13]	10,0 mm	11,5 mm	15,7 mm	18,3 mm	–	–
Polyoxyethylen-??-Dodecylether [Testlösung 8]	14,0 mm	15,5 mm	18,0 mm	20,7 mm	–	–
Polyoxyethylen-C₁₂-C₁₅-Alkylether [Testlösung 7]	–	–	–	–	9,5 mm	15,0 mm
Polyoxyethylen-C₁₂-C₁₅-Alkylether [Testlösung 15]	9,0 mm	12,7 mm	17,0 mm	20,0 mm	–	–
